The source of these data is patent US20220389007A1, “INHIBITORS OF HUMAN IMMUNODEFICIENCY VIRUS REPLICATION” (VIIV HEALTHCARE UK (No. 5) LIMITED, priority 2019, published 2022).

A short description of series [1]: Compound cytotoxicity, XTT-based colorimetric assay. The format is cell-based. The settings on record: human; uninfected MT2 cells, day 4, XTT assay. The method in brief: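 Run under the antiviral-assay protocol but without virus. Viability was read on day 4 and CC50 values were derived from the readout.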
(Tetrazolium assays rely on reduction of a dye to a coloured formazan, in cell work by metabolically active cells.)

Another series relates to recombinant NL4-3 virus. The series is described as follows: HIV cell culture assay (antiviral activity, luciferase readout). Conditions: Human immunodeficiency virus 1, NL43, MT2, MT-2 cells infected for 4-5 days with recombinant NL4-3 virus carrying Renilla luciferase. Type of series: cell-based. The procedure, abridged: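 MT-2 cells infected for 4-5 days with NL4-3 reference virus carrying Renilla luciferase in place of part of nef, in presence of serial compound dilutions. Luciferase read with live-cell substrate; EC50 from median effect equation fit.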

Molecules are shown by their SMILES.

Usually CC50 stands for the concentration giving 50% cytotoxicity. The low end stands for greater toxicity to the cells, the high end for lower toxicity to the cells. As usually defined, the EC50 is the concentration at which the effect is half-maximal. With `Cc1ccnc(-c2ccc3c(=O)n(-c4ccc(Cl)c5c(NS(C)(=O)=O)nn(C)c45)c([C@H](Cc4cc(F)cc(F)c4)NC(=O)Cn4nc(C(F)F)c5c4C(F)(F)[C@@H]4C[C@H]54)nc3n2)c1` (atropisomer, axis not shown; (P)) [Example 49, N-((S)-1-((3P)-3-(4-chloro-1-methyl-3-(methylsulfonamido)-1H-indazol-7-yl)-7-(4-methylpyridin-2-yl)-4-oxo-3,4-dihydropyrido[2,3-d]pyrimidin-2-yl)-2-(3,5-difluorophenyl)ethyl)-2-((3bS,4aR)-3-(difluoromethyl)-5,5-difluoro-3b,4,4a,5-tetrahydro-1H-cyclopropa[3,4]cyclopenta[1,2-c]pyrazol-1-yl)acetamide], in series [1], the CC50 at 4 day was above 100 nM. Moreover, the EC50 in the series on recombinant NL4-3 virus came out at 0.018 nM.

The compound `Cn1nc(NS(C)(=O)=O)c2c(Cl)ccc(-n3c([C@H](Cc4cc(F)cc(F)c4)NC(=O)Cn4nc(C(F)F)c5c4C(F)(F)[C@@H]4C[C@H]54)nc4nc(-c5cccc(Cl)n5)ccc4c3=O)c21` (atropisomer, axis not shown; (P)) [Example 50, N-((S)-1-((3P)-3-(4-chloro-1-methyl-3-(methylsulfonamido)-1H -indazol-7-yl)-7-(6-chloropyridin-2-yl)-4-oxo-3,4-dihydropyrido[2,3-d]pyrimidin-2-yl)-2-(3,5-difluorophenyl)ethyl)-2-((3bS,4aR)-3-(difluoromethyl)-5,5-difluoro-3b,4,4a,5-tetrahydro-1H-cyclopropa[3,4]cyclopenta[1,2-c]pyrazol-1-yl)acetamide] showed a CC50 at 4 day in series [1] above 100 nM. Further, the EC50 in the series with recombinant NL4-3 virus stood at 0.056 nM.

As to `COc1cncc(-c2ccc3c(=O)n(-c4ccc(Cl)c5c(NS(C)(=O)=O)nn(C)c45)c([C@H](Cc4cc(F)cc(F)c4)NC(=O)Cn4nc(C(F)F)c5c4C(F)(F)[C@@H]4C[C@H]54)nc3n2)c1` (atropisomer, axis not shown; (P)) [Example 51, N-((S)-1-((3P)-3-(4-chloro-1-methyl-3-(methylsulfonamido)-1H-indazol-7-yl)-7-(5-methoxypyridin-3-yl)-4-oxo-3,4-dihydropyrido[2,3-d]pyrimidin-2-yl)-2-(3,5-difluorophenyl)ethyl)-2-((3bS,4aR)-3-(difluoromethyl)-5,5-difluoro-3b,4,4a,5-tetrahydro-1H-cyclopropa[3,4]cyclopenta[1,2-c]pyrazol-1-yl)acetamide], the CC50 at 4 day in series [1] is above 100 nM. Further, the 50% effective concentration (EC50) in the series on recombinant NL4-3 virus was 0.085 nM.

With `COc1cncc(-c2ccc3c(=O)n(-c4ccc(Cl)c5c(NS(C)(=O)=O)nn(C)c45)c([C@H](Cc4cc(F)cc(F)c4)NC(=O)Cn4nc(C(F)F)c5c4C(F)(F)[C@@H]4C[C@H]54)nc3n2)n1` (atropisomer, axis not shown; (P)) [Example 54, N-((S)-1-((3P)-3-(4-chloro-1-methyl-3-(methylsulfonamido)-1H-indazol-7-yl)-7-(6-methoxypyrazin-2-yl)-4-oxo-3,4-dihydropyrido[2,3-d]pyrimidin-2-yl)-2-(3,5-difluorophenyl)ethyl)-2-((3bS,4aR)-3-(difluoromethyl)-5,5-difluoro-3b,4,4a,5-tetrahydro-1H-cyclopropa[3,4]cyclopenta[1,2-c]pyrazol-1-yl)acetamide], the CC50 at 4 day in series [1] was above 100 nM. Further, the concentration giving a half-maximal response (EC50) with recombinant NL4-3 virus was 0.039 nM.

`Cn1nc(NS(C)(=O)=O)c2c(Cl)ccc(-n3c([C@H](Cc4cc(F)cc(F)c4)NC(=O)Cn4nc(C(F)F)c5c4C(F)(F)[C@@H]4C[C@H]54)nc4nc(-c5cncnc5)ccc4c3=O)c21` (atropisomer, axis not shown; (P)) [Example 55, N-((S)-1-((3P)-3-(4-chloro-1-methyl-3-(methylsulfonamido)-1H-indazol-7-yl)-4-oxo-7-(pyrimidin-5-yl)-3,4-dihydropyrido[2,3-d]pyrimidin-2-yl)-2-(3,5-difluorophenyl)ethyl)-2-((3bS,4aR)-3-(difluoromethyl)-5,5-difluoro-3b,4,4a,5-tetrahydro-1H-cyclopropa[3,4]cyclopenta[1,2-c]pyrazol-1-yl)acetamide]: the half-maximal cytotoxic concentration (CC50) at 4 day in series [1] was above 100 nM. The EC50 with recombinant NL4-3 virus came out at 0.09 nM.

In the case of `COc1ccnc(-c2ccc3c(=O)n(-c4ccc(Cl)c5c(NS(C)(=O)=O)nn(C)c45)c([C@H](Cc4cc(F)cc(F)c4)NC(=O)Cn4nc(C(F)F)c5c4C(F)(F)[C@@H]4C[C@H]54)nc3n2)n1` (atropisomer, axis not shown; (P)) [Example 56, N-((S)-1-((3P)-3-(4-chloro-1-methyl-3-(methylsulfonamido)-1H-indazol-7-yl)-7-(4-methoxypyrimidin-2-yl)-4-oxo-3,4-dihydropyrido[2,3-d]pyrimidin-2-yl)-2-(3,5-difluorophenyl)ethyl)-2-((3bS,4aR)-3-(difluoromethyl)-5,5-difluoro-3b,4,4a,5-tetrahydro-1H-cyclopropa[3,4]cyclopenta[1,2-c]pyrazol-1-yl)acetamide], the CC50 at 4 day in series [1] is above 100 nM. Besides, the EC50 in the series with recombinant NL4-3 virus was found to be 0.051 nM.

The compound `Cn1nc(NS(C)(=O)=O)c2c(Cl)ccc(-n3c([C@H](Cc4cc(F)cc(F)c4)NC(=O)Cn4nc(C(F)F)c5c4C(F)(F)[C@@H]4C[C@H]54)nc4nc(-c5ncc(Cl)nc5Cl)ccc4c3=O)c21` (atropisomer, axis not shown; (P)) [Example 57, N-((S)-1-((3P)-3-(4-chloro-1-methyl-3-(methylsulfonamido)-1H-indazol-7-yl)-7-(3,5-dichloropyrazin-2-yl)-4-oxo-3,4-dihydropyrido[2,3-d]pyrimidin-2-yl)-2-(3,5-difluorophenyl)ethyl)-2-((3bS,4aR)-3-(difluoromethyl)-5,5-difluoro-3b,4,4a,5-tetrahydro-1H-cyclopropa[3,4]cyclopenta[1,2-c]pyrazol-1-yl)acetamide] displayed a CC50 at 4 day in series [1] above 100 nM. In addition, the EC50 in the series on recombinant NL4-3 virus came to 0.073 nM.

The compound `COc1cc(-c2ccc3c(=O)n(-c4ccc(Cl)c5c(NS(C)(=O)=O)nn(C)c45)c([C@H](Cc4cc(F)cc(F)c4)NC(=O)Cn4nc(C(F)F)c5c4C(F)(F)[C@@H]4C[C@H]54)nc3n2)ccn1` (atropisomer, axis not shown; (P)) [Example 59, N-((S)-1-((3P)-3-(4-chloro-1-methyl-3-(methylsulfonamido)-1H-indazol-7-yl)-7-(2-methoxypyridin-4-yl)-4-oxo-3,4-dihydropyrido[2,3-d]pyrimidin-2-yl)-2-(3,5-difluorophenyl)ethyl)-2-((3bS,4aR)-3-(difluoromethyl)-5,5-difluoro-3b,4,4a,5-tetrahydro-1H-cyclopropa[3,4]cyclopenta[1,2-c]pyrazol-1-yl)acetamide] displayed a CC50 at 4 day in series [1] above 100 nM. Also, the EC50 in the series with recombinant NL4-3 virus was found to be 0.05 nM.

For `Cn1nc(NS(C)(=O)=O)c2c(Cl)ccc(-n3c([C@H](Cc4cc(F)cc(F)c4)NC(=O)Cn4nc(C(F)F)c5c4C(F)(F)[C@@H]4C[C@H]54)nc4nc(-c5ccccn5)ccc4c3=O)c21` (atropisomer, axis not shown; (P)) [Example 60, N-((S)-1-((3P)-3-(4-chloro-1-methyl-3-(methylsulfonamido)-1H-indazol-7-yl)-4-oxo-7-(pyridin-2-yl)-3,4-dihydropyrido[2,3-d]pyrimidin-2-yl)-2-(3,5-difluorophenyl)ethyl)-2-((3bS,4aR)-3-(difluoromethyl)-5,5-difluoro-3b,4,4a,5-tetrahydro-1H-cyclopropa[3,4]cyclopenta[1,2-c]pyrazol-1-yl)acetamide], in series [1], the CC50 at 4 day is above 100 nM. For the same compound, the EC50 with recombinant NL4-3 virus came to 0.032 nM.

Consider `Cn1nc(NS(C)(=O)=O)c2c(Cl)ccc(-n3c([C@H](Cc4cc(F)cc(F)c4)NC(=O)Cn4nc(C(F)F)c5c4C(F)(F)[C@@H]4C[C@H]54)nc4nc(-c5nccnc5Cl)ccc4c3=O)c21` (atropisomer, axis not shown; (P)) [Example 61, N-((S)-1-((3P)-3-(4-chloro-1-methyl-3-(methylsulfonamido)-1H-indazol-7-yl)-7-(3-chloropyrazin-2-yl)-4-oxo-3,4-dihydropyrido[2,3-d]pyrimidin-2-yl)-2-(3,5-difluorophenyl)ethyl)-2-((3bS,4aR)-3-(difluoromethyl)-5,5-difluoro-3b,4,4a,5-tetrahydro-1H-cyclopropa[3,4]cyclopenta[1,2-c]pyrazol-1-yl)acetamide], for which the CC50 at 4 day in series [1] was above 100 nM. Moreover, the half-maximal effective concentration (EC50) with recombinant NL4-3 virus was found to be 0.025 nM.

`Cn1nc(NS(C)(=O)=O)c2c(Cl)ccc(-n3c([C@H](Cc4cc(F)cc(F)c4)NC(=O)Cn4nc(C(F)F)c5c4C(F)(F)[C@@H]4C[C@H]54)nc4nc(-n5ccnc5)ccc4c3=O)c21` (atropisomer, axis not shown; (P)) [Example 64, N-((S)-1-((3P)-3-(4-chloro-1-methyl-3-(methylsulfonamido)-1H-indazol-7-yl)-7-(1H-imidazol-1-yl)-4-oxo-3,4-dihydropyrido[2,3-d]pyrimidin-2-yl)-2-(3,5-difluorophenyl)ethyl)-2-((3bS,4aR)-3-(difluoromethyl)-5,5-difluoro-3b,4,4a,5-tetrahydro-1H-cyclopropa[3,4]cyclopenta[1,2-c]pyrazol-1-yl)acetamide] showed a CC50 at 4 day in series [1] above 100 nM. Besides, the half-maximal effective concentration (EC50) with recombinant NL4-3 virus was determined as 0.53 nM.

In series [1], `Cn1nc(NS(C)(=O)=O)c2c(Cl)ccc(-n3c([C@H](Cc4cc(F)cc(F)c4)NC(=O)Cn4nc(C(F)F)c5c4C(F)(F)[C@@H]4C[C@H]54)nc4nc(-n5ccc(C(F)(F)F)n5)ccc4c3=O)c21` (atropisomer, axis not shown; (P)) [Example 65, N-((S)-1-((3P)-3-(4-chloro-1-methyl-3-(methylsulfonamido)-1H-indazol-7-yl)-4-oxo-7-(3-(trifluoromethyl)-1H-pyrazol-1-yl)-3,4-dihydropyrido[2,3-d]pyrimidin-2-yl)-2-(3,5-difluorophenyl)ethyl)-2-((3bS,4aR)-3-(difluoromethyl)-5,5-difluoro-3b,4,4a,5-tetrahydro-1H-cyclopropa[3,4]cyclopenta[1,2-c]pyrazol-1-yl)acetamide] returned a half-maximal cytotoxic concentration (CC50) at 4 day above 100 nM. In addition, the concentration giving a half-maximal response (EC50) in the series with recombinant NL4-3 virus worked out at 0.062 nM.
